For 22 compounds, EC50, CC50 and selectivity ratio results are on record in ChEMBL document CHEMBL4680126, “Indazolyl-substituted piperidin-4-yl-aminopyrimidines as HIV-1 NNRTIs: Design, synthesis and biological activities” (Eur J Med Chem, 2020).

Data set [1] concerns Human immunodeficiency virus 1. Put plainly: Antiviral activity against HIV-1 K103N mutant strain infected in human MT4 cells assessed as reduction in virus-induced cytopathogenicity by MTT assay. The format is functional, organism-based. The following applies: Human immunodeficiency virus 1, MT4. (Damage to the host cells serves as the signal in cytopathic effect assays.)
Data set [2] concerns Human immunodeficiency virus 1. Nature of the data set: Antiviral activity against HIV-1 E138K mutant strain infected in human MT4 cells assessed as reduction in virus-induced cytopathogenicity by MTT assay. The following applies: Human immunodeficiency virus 1, MT4. The format is functional, organism-based.
Data set [3] deals with Human immunodeficiency virus 1. Nature of the data set: Antiviral activity against HIV-1 Y181C mutant strain infected in human MT4 cells assessed as reduction in virus-induced cytopathogenicity by MTT assay. The format is functional, organism-based. The note with it: Human immunodeficiency virus 1, MT4.
Data set [4] in a line: Cytotoxicity against human MT4 cells assessed as inhibition of cell viability by measuring reduction in absorbance at OD540 by MTT assay. The format is cell-based.
The subject of data set [5] is Human immunodeficiency virus 1. Nature of the data set: Antiviral activity against HIV-1 RES056 mutant strain infected in human MT4 cells assessed as reduction in virus-induced cytopathogenicity by MTT assay. It counts as functional, organism-based. The note with it: Human immunodeficiency virus 1, MT4.
Data set [6] in a line: Selectivity index, ratio of CC50 for cytotoxicity against human MT4 cells reduction in cell viability by MTT assay to EC50 for antiviral activity against wild type HIV-1 strain IIIB infected in human MT4 cells assessed as reduction in virus-induced cytopathogenicity by MTT assay. The format is toxicity, cell-based. The note with it: read-out: Selectivity Index. In general terms: Formazan colour is commonly taken as a measure of viable cells.

In data set [7] the test system is Human immunodeficiency virus 2. Nature of the data set: Antiviral activity against HIV-2 ROD strain infected in human MT4 cells assessed as reduction in virus-induced cytopathogenicity by MTT assay. The note with it: Human immunodeficiency virus 2, ISOLATE ROD.
In data set [8] the test system is Human immunodeficiency virus 1. Nature of the data set: Antiviral activity against wild type HIV-1 strain 3B infected in human MT4 cells assessed as reduction in virus-induced cytopathogenicity by MTT assay. The following applies: Human immunodeficiency virus 1, 3B. The format is functional, organism-based.

In the case of `Cc1cc(C#N)cc(C)c1Oc1ccnc(NC2CCN(Cc3n[nH]c4ccccc34)CC2)n1`, the EC50 in data set [1] was 0.077 µM; in data set [2] it was 57 nM; in data set [3], 0.11 µM; in data set [5], 8.7 µM; in data set [7], > 16 µM; in data set [8], 6.4 nM. Further, in data set [4], the CC50 turned out to be 16 µM. The selectivity ratio in data set [6] was determined as 2500.

With `N#Cc1cccc(Oc2ccnc(NC3CCN(Cc4n[nH]c5ccccc45)CC3)n2)c1`, the EC50 in data set [1] was > 32 µM; in data set [2], > 32000 nM; in data set [3] it was > 32 µM; in data set [5], > 32 µM; in data set [7] it was > 32 µM; in data set [8], 1500 nM. Besides, the CC50 in data set [4] came to 32 µM. For the same compound, in data set [6], the selectivity ratio was 21.

On to `Clc1ccccc1Oc1ccnc(NC2CCN(Cc3n[nH]c4ccccc34)CC2)n1`, for which the EC50 was > 5.4 µM in data set [1]; 800 nM in data set [2]; 1.6 µM in data set [3]; > 5.4 µM in data set [5]; > 5.4 µM in data set [7]; 37 nM in data set [8]. In addition, the CC50 in data set [4] was 5.4 µM. The selectivity ratio in data set [6] came to 146.

On to `Clc1cccc(Oc2ccnc(NC3CCN(Cc4n[nH]c5ccccc45)CC3)n2)c1`, for which the EC50 in data set [1] was 9.8 µM; in data set [2] it was 4700 nM; in data set [3], 9 µM; in data set [5] it was > 26 µM; in data set [7], > 26 µM; in data set [8] it was 280 nM. Further, the cytotoxic concentration (CC50) in data set [4] is 26 µM. In addition, in data set [6], the selectivity ratio came to 93.

`Brc1ccc(Oc2ccnc(NC3CCN(Cc4n[nH]c5ccccc45)CC3)n2)cc1`: the EC50 in data set [1] was 5.7 µM; in data set [2], 2000 nM; in data set [3] it was 7.5 µM; in data set [5], > 24 µM; in data set [7], > 24 µM; in data set [8] it was 210 nM. In data set [4], the CC50 stood at 24 µM. Moreover, the selectivity ratio in data set [6] worked out at 114.

On to `Cc1ccc(Oc2ccnc(NC3CCN(Cc4n[nH]c5ccccc45)CC3)n2)cc1`, for which the EC50 in data set [1] is 3.8 µM; in data set [2] it was 770 nM; in data set [3], 4.3 µM; in data set [5] it was > 32 µM; in data set [7] it was > 32 µM; in data set [8], 140 nM. The CC50 in data set [4] was 32 µM. The selectivity ratio in data set [6] amounted to 229.

`Cc1cccc(Oc2ccnc(NC3CCN(Cc4n[nH]c5ccccc45)CC3)n2)c1`: the concentration giving a half-maximal response (EC50) was 9.6 µM in data set [1]; 4000 nM in data set [2]; > 11 µM in data set [3]; > 32 µM in data set [5]; > 32 µM in data set [7]; 390 nM in data set [8]. In data set [4], the CC50 was 32 µM. Further, the selectivity ratio in data set [6] was 82.

Consider `N#Cc1cc(Cl)cc(Oc2ccnc(NC3CCN(Cc4n[nH]c5ccccc45)CC3)n2)c1`, for which the concentration for a half-maximal effect (EC50) in data set [1] was > 27 µM; in data set [2], > 27000 nM; in data set [3] it was > 27 µM; in data set [5], > 27 µM; in data set [7], > 27 µM; in data set [8], 2300 nM. Besides, in data set [4], the 50% cytotoxic concentration (CC50) came out at 27 µM. Besides, the selectivity ratio in data set [6] amounted to 12.

As for `FC(F)(F)c1ccccc1Oc1ccnc(NC2CCN(Cc3n[nH]c4ccccc34)CC2)n1`, the EC50 in data set [1] is 8.3 µM; in data set [2] it was 4400 nM; in data set [3], 6.8 µM; in data set [5], > 15 µM; in data set [7], > 15 µM; in data set [8], 300 nM. Further, in data set [4], the CC50 worked out at 15 µM. Moreover, the selectivity ratio in data set [6] is 50.

In the case of `Clc1ccc(Oc2ccnc(NC3CCN(Cc4n[nH]c5ccccc45)CC3)n2)cc1`, the EC50 in data set [1] was 4 µM; in data set [2] it was 2300 nM; in data set [3], 5.6 µM; in data set [5], > 30 µM; in data set [7], > 30 µM; in data set [8] it was 230 nM. For the same compound, in data set [4], the CC50 is 30 µM. Also, the selectivity ratio in data set [6] was determined as 130.

For `Cc1cccc(C)c1Oc1ccnc(NC2CCN(Cc3n[nH]c4ccccc34)CC2)n1`, the EC50 is 0.22 µM in data set [1]; 84 nM in data set [2]; 0.4 µM in data set [3]; > 18 µM in data set [5]; > 18 µM in data set [7]; 8.6 nM in data set [8]. Further, the CC50 in data set [4] stood at 18 µM. Further, the selectivity ratio in data set [6] came out at 2090.

As for `Brc1cccc(Oc2ccnc(NC3CCN(Cc4n[nH]c5ccccc45)CC3)n2)c1`, the EC50 in data set [1] was 4.9 µM; in data set [2], 3500 nM; in data set [3], 6.1 µM; in data set [5], > 22 µM; in data set [7] it was > 22 µM; in data set [8], 250 nM. In data set [4], the CC50 was 22 µM. For the same compound, the selectivity ratio in data set [6] was found to be 88.

In the case of `Cc1cc(Oc2ccnc(NC3CCN(Cc4n[nH]c5ccccc45)CC3)n2)cc(C)c1Cl`, the EC50 in data set [1] is 8.2 µM; in data set [2], 4700 nM; in data set [3], 8.7 µM; in data set [5], > 15 µM; in data set [7], > 15 µM; in data set [8], 370 nM. Further, in data set [4], the 50% cytotoxic concentration (CC50) is 15 µM. Further, the selectivity ratio in data set [6] is 41.

As for `N#Cc1ccc(Oc2ccnc(NC3CCN(Cc4n[nH]c5ccccc45)CC3)n2)cc1`, the EC50 in data set [1] is 2.6 µM; in data set [2], 1400 nM; in data set [3] it was 3.13 µM; in data set [5] it was > 31 µM; in data set [7] it was > 31 µM; in data set [8] it was 78 nM. Further, the CC50 in data set [4] is 31 µM. In addition, the selectivity ratio in data set [6] turned out to be 397.

Regarding `FC(F)(F)c1cccc(Oc2ccnc(NC3CCN(Cc4n[nH]c5ccccc45)CC3)n2)c1`, the concentration for a half-maximal effect (EC50) in data set [1] is 8.9 µM; in data set [2], 7000 nM; in data set [3] it was 9.7 µM; in data set [5] it was > 22 µM; in data set [7] it was > 22 µM; in data set [8] it was 550 nM. The CC50 in data set [4] came to 22 µM. Moreover, the selectivity ratio in data set [6] stood at 40.

Consider `Brc1ccccc1Oc1ccnc(NC2CCN(Cc3n[nH]c4ccccc34)CC2)n1`, for which the EC50 was 1.9 µM in data set [1]; 480 nM in data set [2]; 1 µM in data set [3]; > 5.3 µM in data set [5]; > 5.3 µM in data set [7]; 31 nM in data set [8]. Also, in data set [4], the CC50 is 5.3 µM. Besides, the selectivity ratio in data set [6] was found to be 171.

For `FC(F)(F)c1ccc(Oc2ccnc(NC3CCN(Cc4n[nH]c5ccccc45)CC3)n2)cc1`, the EC50 was 10 µM in data set [1]; 4800 nM in data set [2]; > 29 µM in data set [3]; > 29 µM in data set [5]; > 29 µM in data set [7]; 470 nM in data set [8]. Further, the CC50 in data set [4] was 29 µM. Moreover, the selectivity ratio in data set [6] amounted to 62.

For the compound `O=C1Nc2ccc(Cl)cc2[C@@](C#CC2CC2)(C(F)(F)F)O1` [EFAVIRENZ], the EC50 was 0.076 µM in data set [1], 4.4 nM in data set [2], 0.24 µM in data set [5] and 2.6 nM in data set [8]. In addition, the CC50 in data set [4] was > 6.3 µM. Besides, the selectivity ratio in data set [6] is > 2420.

Regarding `Cc1cc(C#N)cc(C)c1Oc1nc(Nc2ccc(C#N)cc2)nc(N)c1Br` [ETRAVIRINE], the CC50 in data set [4] was > 87 µM. The selectivity ratio in data set [6] was > 28.

Turning to `Nc1ccn([C@@H]2CS[C@H](CO)O2)c(=O)n1` [LAMIVUDINE], the EC50 came to 0.019 µM in data set [1]; 19 nM in data set [2]; 0.012 µM in data set [3]; 0.028 µM in data set [5]; 0.021 µM in data set [7]; 18 nM in data set [8]. Moreover, the CC50 in data set [4] is > 7.5 µM. For the same compound, the selectivity ratio in data set [6] is > 417.

As to `Cc1ccnc2c1NC(=O)c1cccnc1N2C1CC1` [NEVIRAPINE], the EC50 in data set [1] was 0.0032 µM; in data set [2], 6.7 nM; in data set [3], 0.014 µM; in data set [5] it was 0.034 µM; in data set [8], 3.2 nM. Also, the CC50 in data set [4] was > 4.6 µM. For the same compound, in data set [6], the selectivity ratio is > 1440.

With `Cc1cn([C@H]2C[C@H](N=[N+]=[N-])[C@@H](CO)O2)c(=O)[nH]c1=O` [ZIDOVUDINE], in data set [2], the EC50 was 160 nM. In data set [4], the CC50 was > 15 µM. For the same compound, in data set [6], the selectivity ratio was > 100.

What is called EC50 is the concentration needed to bring the measured effect to its halfway point. The CC50 is the concentration at which the toxic effect on the cells reaches its halfway point.
